Here are results for 45 compounds from patent US8992977B2, “Multi-day delivery of biologically active substances” (Samos Pharmaceuticals, LLC, priority 2007, dated 2015).

The conditions of series [1]: cited from earlier work.
The conditions of series [2]: cited from earlier work. The source holds these as a separate data set.
The conditions of series [3]: cited from earlier work; for t1/2: carrier drug, as repeated in the examples.
A short description of series [4]: Hydrolysis of ethinyl estradiol (EE) from conjugate of Example 16. The settings on record: for Ethinyl Estradiol Released (%): 9:4 ethanol/0.05 M phosphate buffer pH 7.4, 37° C. It is filed as physicochemical. As for the experimental part: Estradiol conjugate (33.5 mg, 0.039 mmol), prepared from Conjugate 1 as described in Example 16, was dissolved in 58 mL of a 9:4 ethanol/0.05 M aqueous phosphate buffer (pH 7.4) mixture, and the solution was shaken in a 37° C. incubator for 9 days. Six 8 mL aliquots were collected at 1-, 2-, 3-, 5-, 7-, and 9-day intervals. Estradiol release was quantified by adding 33 μL of a 0.09 M solution of butylated hydroxytoluene (BHT) in deuterochloroform as an internal standard, then comparing integrals of 1H NMR signals corresponding to the steroid and the internal standard.

For series [5] the following is noted: cited from earlier work; for short half life from triacylglycerols (TAG) / following half life from triacylglycerols (TAG): bi-exponential pattern; for short half life from triacylglycerols (TAG): first phase; for following half life from triacylglycerols (TAG): second phase.
The conditions of series [6]: cited from earlier work. This is another data set of the same source.
Setting [7] is: Table 1, alcohol moiety, 60% acetone, temperature 25.
[8] abbreviates: Table 1, alcohol moiety, 60% acetone, temperature 1.
Setting [9] is: Table 2, acid moiety, 70% acetone, temperature 24.7.
Where [10] appears, read: Table 2, acid moiety, water, temperature 24.7.
Setting [11] is: Table 1, alcohol moiety, 70% acetone, temperature 24.7.
The mark [12] stands for this setting: The Pharmacological Basis of Therapeutics 10th ed., Physicians Desk Reference 58th Ed.
Setting [13] is: carotenoids, J. of Nutrition 2001, 131, 2096.
The mark [14] stands for this setting: Physicians Desk Reference p. 3372, 57 ed., 2003.

Where two headings read alike, the source gives them in different places.

Take `CC(=O)OCc1ccc([N+](=O)[O-])cc1`: the kOH in series [1] (setting [7]) was 0.269 M⁻¹ s⁻¹.

Regarding `CC(=O)Oc1ccc([N+](=O)[O-])cc1`, the kOH in series [1] (setting [8]) was 2.2 M⁻¹ s⁻¹. `CC(=O)Oc1cccc(C)c1`: the kOH in series [1] (setting [8]) is 0.09 M⁻¹ s⁻¹. With `CC(C)=CCC\C(C)=C/C=C/C(C)=C/C=C/C(C)=C/C=C/C=C(C)/C=C/C=C(C)/C=C/C=C(\C)CCC=C(C)C` [5-Z lycopene], the half life in series [2] (in vivo) was 220 h. `CCOC(=O)C(CC)CC` [(C2H5)2CHCOOC2H5]: the kOH in series [1] (setting [9]) was 0.000083 M⁻¹ s⁻¹. As for `CCOC(=O)C(C)(C)C` [(CH3)3CCOOC2H5], the kOH in series [1] (setting [9]) was 0.00022 M⁻¹ s⁻¹. Regarding `CCOC(=O)C[N+](C)(C)C` [(CH3)3N^+CH2COOC2H5], the kOH in series [1] (setting [10]) is 98.0 M⁻¹ s⁻¹. As for `CC(=O)OC[C@H]1O[C@@H]([S-])[C@H](OC(C)=O)[C@@H](OC(C)=O)[C@@H]1OC(C)=O.CCP(CC)CC.[Au+]` [Auranofin], the half life in series [3] (in vivo) was 408 to 600 h. On to `CCCOC(C)=O` [CH3COO(CH2)2CH3], for which the kOH in series [1] (setting [11]) is 0.027 M⁻¹ s⁻¹.

As for `CCOC(C)=O` [CH3COOC2H5], the kOH in series [1] (setting [11]) and in series [1] (setting [9]) was 0.047 M⁻¹ s⁻¹ in each case. Turning to `CC(=O)Oc1ccccc1` [CH3COOC6H5], the kOH in series [1] (setting [7]) is 0.537 M⁻¹ s⁻¹. On to `CC(=O)OC(C)(C)C` [CH3COOC(CH3)3], for which, in series [1] (setting [11]), the kOH was 0.00027 M⁻¹ s⁻¹. `COC(C)=O` [CH3COOCH3]: in series [1] (setting [11]), the kOH is 0.108 M⁻¹ s⁻¹.

As to `CC(=O)OC(C)C` [CH3COOCH(CH3)2], the kOH in series [1] (setting [11]) is 0.007 M⁻¹ s⁻¹. Take `CCOC(=O)CSC` [CH3SCH2COOC2H5]: the kOH in series [1] (setting [10]) is 0.92 M⁻¹ s⁻¹. Regarding `CCOC(=O)C[S+](C)[O-]` (centres unmarked) [CH3SOCH2COOC2H5], the kOH in series [1] (setting [10]) was 4.20 M⁻¹ s⁻¹. In the case of `CCOC(=O)CCl` [ClCH2COOC2H5], the kOH in series [1] (Table 2, acid moiety, Water, μ = 0.2, temperature 24.7) is 33.2 M⁻¹ s⁻¹.

For `C#C[C@]1(O)CC[C@H]2[C@@H]3CCc4cc(OC(=O)CCC(=O)OC(c5cc(C(F)(F)F)nc6c(C(F)(F)F)cccc56)C5CCCCN5)ccc4[C@H]3CC[C@@]21C` (some centres unmarked) [Conjugate of Example 16], the “rate of hydrolysis compared with Conjugate 1” value in series [4] is on record as “slower than that of Conjugate 1”. Besides, the “Ethinyl Estradiol Released (%)” value is listed as 30% in series [4] (Day 1); 50% in series [4] (Day 2); 63% in series [4] (Day 3); 77% in series [4] (Day 5); 88% in series [4] (Day 7); 98% in series [4] (Day 9). With `CC/C=C\C/C=C\C/C=C\C/C=C\C/C=C\C/C=C\CCC(=O)O` [DHA, docosahexaenoic acid], in series [5], the “short half life from triacylglycerols (TAG)” value is listed as “less than a day” and the “following half life from triacylglycerols (TAG)” value was “several days”. `CC(C)=CCC/C(C)=C/C=C/C(C)=C/C=C/C(C)=C/C=C/C=C(C)/C=C/C=C(C)/C=C/C=C(\C)CCC=C(C)C` [E lycopene]: in series [2] (in vivo), the half life was 120 h.

Take `CC/C=C\C/C=C\C/C=C\C/C=C\C/C=C\CCCC(=O)O` [EPA, eicosapentaenoic acid]: in series [5] (Br. J. Nutr. 1999), the “mean half life in cholesteryl esters (CE)” value is 78.5 h. In series [5], the “short half life from triacylglycerols (TAG)” value is recorded as “less than a day” and the “following half life from triacylglycerols (TAG)” value was “several days”.

For `CNCCC(Oc1ccc(C(F)(F)F)cc1)c1ccccc1` (centres unmarked) [Fluoxetine], in series [3] (setting [12]), the half life is 53 h. Also, the t1/2 in series [3] is listed as 53 h. Regarding `CCOC(=O)CN` [H3N^+CH2COOC2H5], the kOH in series [1] (setting [10]) is 60.5 M⁻¹ s⁻¹. `CCN(CCO)CCCC(C)Nc1ccnc2cc(Cl)ccc12` (centres unmarked) [Hydroxychloroquine]: in series [3] (setting [12]), the half life was 1220 h. With `OC(c1cc(C(F)(F)F)nc2c(C(F)(F)F)cccc12)C1CCCCN1` (centres unmarked) [Mefloquine], in series [3] (setting [12]), the half life was 480 ± 96 h. `COc1ccc2cc(CCC(C)=O)ccc2c1` [Nabumetone]: in series [3] (setting [12]), the half life is 23 h. Consider `CNCCC=C1c2ccccc2CCc2ccccc21` [Nortriptyline], for which the half life in series [3] (setting [12]) is 31 h. Consider `CCC1(c2ccccc2)C(=O)NC(=O)NC1=O` [Phenobarbital], for which the half life in series [3] (setting [12]) was 99 h.

Take `O=c1[nH]c2ccccc2n1C1CCN(CCCC(c2ccc(F)cc2)c2ccc(F)cc2)CC1` [Pimozide]: the half life in series [3] (setting [12]) is 111 h.

Regarding `CNCCCC1c2ccccc2C=Cc2ccccc21` [Protriptyline], the half life in series [3] (setting [12]) was 78 h. The t1/2 in series [3] is 76 h.

Consider `CO[C@H]1C[C@@H]2CC[C@@H](C)[C@@](O)(O2)C(=O)C(=O)N2CCCC[C@H]2C(=O)O[C@H]([C@H](C)C[C@@H]2CC[C@@H](O)[C@H](OC)C2)CC(=O)[C@H](C)/C=C(\C)[C@@H](O)[C@@H](OC)C(=O)[C@H](C)C[C@H](C)/C=C/C=C/C=C/1C` [Sirolimus], for which, in series [3] (setting [12]), the half life was 62 h. In addition, the t1/2 in series [3] is 62 h. On to `CN(C)CCOc1ccc(/C(=C(/CCCl)c2ccccc2)c2ccccc2)cc1` [Toremifene], for which the half life in series [3] (setting [12]) is 148 h. Regarding `CC1=CCCC(C)(C)[C@H]1/C=C/C(C)=C/C=C/C(C)=C/C=C/C=C(C)/C=C/C=C(C)/C=C/C1=C(C)CCCC1(C)C` [alpha carotene], in series [2] (setting [13]), the half life is 1080 h.

Turning to `CC1=C(/C=C/C(C)=C/C=C/C(C)=C/C=C/C=C(C)/C=C/C=C(C)/C=C/C2=C(C)CCCC2(C)C)C(C)(C)CCC1` [beta carotene], in series [2] (setting [13]), the half life was 888 h. In the case of `CC1=C(/C=C/C(C)=C/C=C/C(C)=C/C=C/C=C(C)/C=C/C=C(C)/C=C/C2=C(C)C[C@@H](O)CC2(C)C)C(C)(C)CCC1` [beta cryptoxanthin], in series [2] (setting [13]), the half life was 936 h. For the compound `C#C[C@]1(O)CC[C@H]2[C@@H]3CCc4cc(O)ccc4[C@H]3CC[C@@]21C` [ethinyl estradiol], in series [6] (setting [14]), the CL/F was 8.1 mL/min/kg and the half life is 18.7 h. Take `C#C[C@]1(O)CC[C@H]2[C@@H]3CCC4=CC(=O)CC[C@@H]4[C@H]3CC[C@@]21CC` [levonorgestrel]: the plasma concentrations entry in series [6] (ovulation suppression use) was “about 1 microgram per ml”. `CCCCC/C=C\C/C=C\CCCCCCCC(=O)O` [linoleic acid]: the t1/2 in series [5] (essential fatty acids as drug carriers) is 24 h. Consider `CC1=C[C@H](O)CC(C)(C)[C@H]1/C=C/C(C)=C/C=C/C(C)=C/C=C/C=C(C)/C=C/C=C(C)/C=C/C1=C(C)C[C@@H](O)CC1(C)C` [lutein], for which the half life in series [2] (setting [13]) was 1820 h. Take `CC(C)=CCC/C(C)=C/C=C/C(C)=C/C=C/C(C)=C/C=C/C=C(C)/C=C/C=C(C)/C=C/C=C(\C)CCC=C(C)C` [lycopene]: the half life in series [2] (setting [13]) was 624 h. Regarding `CCCC(=O)OCC` [nC3H7COOC2H5], the kOH in series [1] (setting [9]) is 0.088 M⁻¹ s⁻¹.

For the compound `CC1=C(/C=C/C(C)=C/C=C/C(C)=C/C=C/C=C(C)/C=C/C=C(C)/C=C/C2=C(C)CC(O)CC2(C)C)C(C)(C)CC(O)C1` (centres unmarked) [zeaxanthin], in series [2] (setting [13]), the half life was 912 h. For Gold sodium thiomalate, the half life in series [3] (setting [12]) is 600 h.

As for Infliximab, in series [3] (in vivo), the half life is 228 h.

As to Ivermectin, in series [3] (setting [12]), the half life was 57 h.
